From ChEMBL document CHEMBL2429800, “A new trypsin inhibitory phthalic acid ester from Heliotropium strigosum” (Med Chem Res, 2013)

Biological target: Trypsin (Homo sapiens, UniProt P07477+P07478+P35030)
Test: Competitive inhibition of trypsin (unknown origin) using […] as substrate incubated for 20 mins prior to substrate addition by Dixon plot/ Lineweaver-Burk plot analysis
Assay type: protein assay

Row | Structure (SMILES) | Ki
1 | CCCCCCCCC(CC)COC(=O)c1ccccc1C(=O)OCC(CC)CCCCCCCC (configuration not stated) | 12.1 µM
2 | O=S(=O)(F)Cc1ccccc1 [PHENYLMETHYLSULFONYLFLUORIDE] | 10.01 µM
